Patent publication US20260034135A1, “USE OF N6-BENZYLAMINOPURINE AS AN APPETITE SUPPRESSANT” (THE GOVERNING COUNCIL OF THE UNIVERSITY OF TORONTO, priority 2022, published 2026)

Tests used:
[1] = BAP in the drinking water in CD-1 mice: body weight and water intake; format: in vivo
Protocol: All protocols using mice were approved by the University Animal Care Committee of the University of Toronto and were performed in accordance with the Canadian Council on Animal Care. Animal experiments were performed in three separate animal facilities: Medical Sciences Building (MSB), Centre for Cellular and Biomolecular Research (CCBR) and the Biological Sciences Facility (BSF) due to ongoing construction and housing changes. Facilities and dates are indicated in each experimental cohort. N6-benzylaminopurine (BAP; also called N6-benzyladenine) was obtained from Sigma (B3408, cell culture grade in powder form; CAS number 1214-39-7). Male and female CD-1 mice aged 6-7 weeks were acquired from Charles Rivers and acclimated on a chow diet for one week prior to experimentation. Mice were then weight-matched and placed on either a 60% high fat diet (HFD) or sucrose-matched control diet for 4 weeks (from Research Diets: 60% HFD D12492 and the sucrose-matched control diet […]). After 3 weeks on the diet, mice were acclimated for one week to the drinking apparatus, a 50 mL canonical tube with a drinking tube. After 4 weeks on the diet, the mice were again weight-matched and randomly assigned to either the control or BAP group. […] The average dosages achieved using this method are as follows: male HFD (200 mg/kg/day), male control (157 mg/kg/day), female HFD (189 mg/kg/day), and female control (129.9 mg/kg/day). The mice were exposed continuously to the solutions for a total of 33 days. One week prior to the end of the experiment (day 28), the mice were fasted for 4 hr and underwent intraperitoneal insulin tolerance testing (ITT). After 33 days, the mice were sacrificed, and their tissues were collected. RNA was isolated from the collected hypothalamic and used to quantify gene expression via qRT-PCR.

mHypoE-44 cell line = experiment: Gene expression by qRT-PCR in mHypoE-44 hypothalamic cell line; format: cell-based, mouse; conditions: for effect of PKA inhibition on BAP effect on Npy expression: n=2
Protocol: Hypothalamic neurons from embryonic and adult mice were previously immortalized to generate the clonal cell lines mHypoE-46, mHypoE-44, mHypoE-41, mHypoE-38, mHypoA-59, a FAC-sorted POMC/GFP mouse-derived cell line, mHypoA-POMC/GFP-2, and a mixed culture mHypoA-Bmal1-WT/F cell line (6, 13, 14). The mHypoE-46, mHypoE-44, and mHypoA-Bmal1-WT/F lines were cultured in DMEM containing 1000 mg/L glucose supplemented with 5% FBS and 1% pen/strep. The mHypoE-41, mHypoE-38, and mHypoA-59 cell lines were cultured in DMEM containing 4500 mg/L glucose supplemented with 2% FBS and 1% pen/strep. The mHypoA-POMC/GFP-2 line was cultured in DMEM containing 1000 mg/L glucose supplemented with 2% FBS and 1% pen/strep. All cells were maintained in 5% CO2 at 37° C. BAP was initially dissolved in DMSO solvent (vehicle control) to achieve 1000x the intended dose. The BAP solution was then diluted 1:1000 with the growth media used for the cell line. For co-treatment experiments, the vehicle control for ATP, UDP, and PKI was water, and for the H89 PKA inhibitor was DMSO. Neuropeptide gene expression levels were determined by qRT-PCR.
For cell culture experiments, total RNA was isolated using PureLink RNA isolation kit (Thermofisher Scientific, Burlington, ON, Canada) according to the manufacturer's instruction with on column DNase step (PureLink DNAse kit) or DNase I treatment to remove genomic DNA. For mouse experiments, total RNA was isolated using mirVana PARIS RNA and native protein isolation kit (Thermofisher Scientific). RNA quality and quantity were measured using Nanodrop 2000 and 500-1000 ng of complimentary DNA (cDNA) was synthesized with High Capacity cDNA Reverse Transcription kit (Applied biosystems, Thermofisher Scientific). Quantitative reverse transcription polymerase chain reaction (RT-qPCR) was performed with 12.5 ng of cDNA amplified with Platinum SYBR green qPCR SuperMix-UDG with ROX on an Applied Biosystems Prism 7900HT or PowerTrack Green Master Mix on an Applied Biosystems QuantStudio 5 and gene specific primers as per manufacturer's instructions (Table 1). Data was analyzed using […] and normalized to reference gene, either 60S ribosomal protein L7 (Rpl7) or Histone 3a (His).

mHypoE-46 cell line = experiment: RNA-sequencing (RNA-seq) of mHypoE-46 exposed to BAP; format: cell-based, mouse; conditions: 100 μM BAP
Protocol: To assess global mRNA gene expression changes, we exposed the mHypoE-46 line to 100 μM BAP for 4 and 16 h and assess mRNA expression via RNA-sequencing (RNA-seq). […] It is already known that a decrease in mTORC1 signaling results in a decrease in Npy through decreases in p70-S6K activity (18-20). […] Specifically, the gene expression of the upstream inhibitors of mTORC1, sestrin2 (Sesn2) (21) and tuberous sclerosis complex 2 (Tsc2) were both increased with BAP; whereas the gene expression of two downstream effectors inhibited by mTORC1, 4e-BP1 (Eif4ebp1) and ULK1 (Ulk1), were increased as well, indicating an overall negative regulation of mTORC1 activity (see FIG. 42A and 42B).

[2] = both 4 and 16 h, validated in mHypoE-46

With c1ccc(CNc2ncnc3nc[nH]c23)cc1 [BAP, N6-benzylaminopurine] the “initial body weight loss” value ([1]; female CD-1, 60% HFD, 10 mM BAP in drinking water (189 mg/kg/day), after 9 days of exposure) was 9%, the “body weight less than control group on same diet at end” value ([1]; female CD-1, 60% HFD, 10 mM BAP in drinking water, 33 days) was 3 g and the “initial body weight loss” value ([1]; female CD-1, sucrose-matched control diet, 10 mM BAP in drinking water (129.9 mg/kg/day), after 3 days, quickly regained) was 5%. For the same compound, the “body weight as percentage of starting weight vs vehicle control” value ([1]; female CD-1, sucrose-matched control diet, 10 mM BAP in drinking water, 33 days) was “not reduced”, the “peak body weight loss” value ([1]; male CD-1, 60% HFD, 10 mM BAP in drinking water (200 mg/kg/day), peak after 13 days of exposure) was 18% and the “body weight difference, control heavier than BAP group at end of experimental period” value ([1]; male CD-1, 60% HFD, 10 mM BAP in drinking water, 33 days) was 11 grams. The “peak body weight loss” value ([1]; male CD-1, sucrose-matched control diet, 10 mM BAP in drinking water (157 mg/kg/day), peak after 12 days) was 9%, the “body weight lighter than non-BAP control at end of experimental period” value ([1]; male CD-1, sucrose-matched control diet, 10 mM BAP in drinking water, 33 days) was 4 g and the “effect of PKA inhibition on BAP effect on Npy expression” value (mHypoE-44 cell line; 100 μM BAP + 1 μM H89, 16 hr) was “unable to block the effects of BAP on Npy expression”. For the same compound, the “effect of PKA inhibition on BAP effect on Npy expression” value (mHypoE-44 cell line; 100 μM BAP + 10 μM PKI, 16 hr) was “unable to block the effects of BAP on Npy expression”, the “Npy mRNA under co-treatment with ATP” value (mHypoE-44 cell line; 100 μM BAP + 100 μM ATP, 16 hr) was “still able to overcome this induction” and the “Npy mRNA under co-treatment with UDP (effect of UDP on BAP repression)” value (mHypoE-44 cell line; 100 μM BAP + 100 μM UDP, 16 hr) was “block the repression of Npy levels by BAP”. The “Npy mRNA under co-treatment with UTP (effect of UTP on BAP repression)” value (mHypoE-44 cell line; 100 μM BAP + 100 μM UTP, 16 hr, n=2 preliminary) was “appears to be able to block the repression of Npy levels by BAP”, the “Agrp mRNA expression” value (mHypoE-44 cell line; 100 μM BAP, 16 hr) was “increased” and the “Npy mRNA expression” value (mHypoE-44 cell line; 100 μM BAP, 16 hr) was “supressed”. For the same compound, the “Npy mRNA expression, time course” value (mHypoE-44 cell line; 100 μM BAP, at 8 and 16 hr (tested 2, 4, 8, 16, 24 hr)) was “significantly downregulate”, the “BAP dose with strongest Npy decrease” value (mHypoE-44 cell line; dose curve, 16 hr) was 500 µM and the “Npy expression, dose curve” value (mHypoE-44 cell line; increasing concentrations of BAP, 16 hr) was “decreases Npy in a dose dependent manner”. The “4e-BPI (Eif4ebp I), RNA-seq data 4 h” value (mHypoE-46 cell line; 4 h) was “↑”, the “S6K (Rps6kbI), RNA-seq data 4 h” value (mHypoE-46 cell line; 4 h) was “ns” and the “Sestrin2 (Sesn2), RNA-seq data 4 h” value (mHypoE-46 cell line; 4 h) was “↑”. The “TSC2 (Tsc2), RNA-seq data 4 h” value (mHypoE-46 cell line; 4 h) was “ns”, the “ULK I (Ulk I), RNA-seq data 4 h” value (mHypoE-46 cell line; 4 h) was “ns” and the “4e-BPI (Eif4ebp I), RNA-seq data 16 h” value (mHypoE-46 cell line; 16 h) was “↑”. The “S6K (Rps6kbI), RNA-seq data 16 h” value (mHypoE-46 cell line; 16 h) was “↓”, the “Sestrin2 (Sesn2), RNA-seq data 16 h” value (mHypoE-46 cell line; 16 h) was “↑” and the “TSC2 (Tsc2), RNA-seq data 16 h” value (mHypoE-46 cell line; 16 h) was “↑”. For the same compound, the “ULK I (Ulk I), RNA-seq data 16 h” value (mHypoE-46 cell line; 16 h) was “↑”, the “early growth response protein 1 (Egr1) gene expression” value (mHypoE-46 cell line; [2]) was “highly downregulated” and the “early growth response protein 3 (Egr3) gene expression” value (mHypoE-46 cell line; [2]) was “highly downregulated”. The c-fos gene expression (mHypoE-46 cell line; validated in mHypoE-46) was “significantly downregulated” and the c-jun gene expression (mHypoE-46 cell line; validated in mHypoE-46) was “significantly downregulated”.
